Data from US11617748B2, “Meclozine derivatives and diclazuril derivatives for use in the prevention and/or the treatment of disorders associated to the inflammation induced by P. acnes” (priority 2016, dated 2023).

Legend:
JNK = assay: Western blot of p-JNK/JNK in P. acnes-stimulated HaCaT cells; format: cell-based, human; conditions: 25 μM, 24 h pre-treatment
Description: Western Blot analysis. Whole cell protein extracts (25 μg) were separated by electrophoresis (LDS-PAGE) under denaturing conditions with NuPAGE Novex 4-12% Bis-Tris gel (1 mm, 12 wells, Invitrogen, UK) and proteins were transferred onto nitrocellulose membranes and saturated in 20 ml of saturation buffer consisting of TBS 1× (Tris Buffered Saline) containing 200 mM Tris, 1.4 M NaCl (pH 7.6), 5% no fat milk, 0.1% Tween 20 for 1 h. […] After washing to remove unbound antibodies, bound primary antibodies were detected by incubation for 1 h using secondary antibody against rabbit- and mouse IgG (Santa Cruz Biotechnology, SC-2357, 1:5000 and SC-2005, 1:5000, respectively). Unbound material was removed by washing and peroxidase activity was detected in a chemiluminescence assay (WesternBright ECL, Advansta, Menlo Park, USA). […]

IL-8 production = assay: P. acnes-induced IL-8 production in HaCaT keratinocytes (ELISA); format: cell-based, human; conditions: for reduction of IL-8 production, 24 h pre-treatment / effect on IL-8 production (time course, FIG. 4A) / effect on IL-8 production at 12.5 μM, in words / reduction of IL-8 production, 1 and 6 h pre-treatment / decrease of IL-8 production, 48 h pre-treatment: HaCaT; for reduction of IL-8 production, 24 h pre-treatment: 6.25 μM; for reduction of IL-8 production, 24 h pre-treatment / reduction of IL-8 production, 1 and 6 h pre-treatment / decrease of IL-8 production, 48 h pre-treatment: P. acnes 18 h; for effect on IL-8 production (time course, FIG. 4A): 10 μM, P. acnes 15-180 min; for reduction of IL-8 production, 24 h pre-treatment / effect on IL-8 production (time course, FIG. 4A): 24 h pre-treatment; for effect on IL-8 production at 12.5 μM, in words: 24 h pre-treatment (FIG. 8B); for reduction of IL-8 production, 1 and 6 h pre-treatment: 0.39 to 12.5 μM; for IC50: Homo sapiens, HaCaT cells pre-treated 24 h, then stimulated with P. acnes, read-out: IC50 of inhibition of IL-8 production
Description: Bacterial strain and conditions of growth. P. acnes strain 6919 was obtained from the American Type Culture Collection (Manassas, Va.) and P. acnes strains RON and PIE were isolated from patient with joint infection. All strains were grown under anaerobic conditions in reinforced clostridial liquid and solid medium (RCM) (Difco Laboratories, Detroit, Mich.). P. acnes was transferred from the bacterial stock onto RCM agar plate and incubated for 5 days under anaerobic condition by using a GasPak™ EZ Anaerobic Container System (Becton Dickinson & Co, Sparks Md., USA). A single colony was transferred into 100 ml RCM and grown as described above. Bacterial suspension was then store frozen at −80° C. in presence of 10% glycerol final. This stock was called «start stock» and used for all the experiments. For routine culture, 100 ml of RCM was used and bacteria were harvested after 5 days at 37° C. by centrifugation at 7,000×g for 10 min at 4° C. Pellets were pooled and washed in about 30 ml of cold sterile PBS [1.5 mM KH2PO4, 2.7 mM Na2HPO4.7H2O, 0.15 M NaCl (pH 7.4)] and centrifuged again as described above. Finally, the bacterial pellet was suspended in sterile PBS (1:10 from volume culture).
Cell culture, pretreatment and stimulation. The immortalized human keratinocyte cell line HaCaT, fibroblast MRC5 were grown in Dulbecco's modified Eagle's medium-Glutamax-I (DMEM) with 1 mM sodium pyruvate. The immortalized human monocytic cell line ThP1 was grown in Roswell Park Memorial Institute 1640 Medium-Glutamax-I (RPMI). DMEM and RPMI were supplemented with 0.1% and 10% heat-inactivated fetal calf serum (Invitrogen), and an antibiotic/antimycotic solution (10 U/ml Pencillin, 10 μg/ml Streptomycin, 0.25 μg/ml Amphoterin) at 37° C. in humidified atmosphere containing 5% CO2 as described (Life Technologie). Primary human keratinocytes (NHDK) and fibroblast (HDF) were grown in the KGM-Gold and in FGM-2 Bullet Kit, respectively, as described by the manufacturer (Lonza). The immortalized cell lines were routinely tested to assess the absence of Mycoplasma infection. Cells, cultivated in 6- or 96-well polystyrene plates, were pretreated with appropriate molecule solution for 1 to 48 h at 37° C. in the dark at the appropriate concentration. Then, for stimulation, cells were incubated for 15 min to 24 h with the P. acnes suspension adjusted at the appropriate concentration at 37° C. in 5% CO2. For experiences using an in vitro model of psoriasis, the primary human keratinocytes (NHDK) were grown in culture medium for 24 hours. The medium was removed and replaced with culture medium containing meclozine, diclazuril and JAK inhibitor (used as positive control) at the concentrations of 0.39, 0.78, 1.56, 3.12, 6.25 and 12.5 μM and the pro-inflammatory mixture M5 (combination of IL-17A, OSM, TNF-α, IL-22, IL-1α at 10 ng/ml) was added to the cells followed by an incubation for 48 or 72 hours.
ELISA. Human IL-1β, IL-8, hBD-2 and TNF-α protein concentration were measured in the supernatants of stimulated cells using various ELISA Sets (all from Ready-Set-Go from eBioscience, except hBD-2 measurements: Human DEFB4A/BD-2 ELISA Kit from LSBio) according to the manufacturer's instructions. We used serial dilutions of recombinant human IL-1β, IL-8, hBD-2 and TNF-α for standard curve. The optical density was determined at 450 nm at a wavelength correction of 540 nm.
Both molecules, diclazuril and meclozine, were purchased separately from Sigma and tested independently on immortalized keratinocytes HaCaT cell for their capacity to inhibit the IL-8 production in a dose-dependent manner. HaCaT cells were pre-treated with diclazuril and meclozine, at the concentrations ranging from 0.39 to 50 μM, for 24 h and then stimulated with P. acnes suspension as described in Materials and Methods. The production of IL-8 was measured on culture supernatant by ELISA and the viability of cells was estimated by MTT assay (FIG. 1).

Row | SMILES | phosphorylation of JNK induced by P. acnes (JNK) | reduction of IL-8 production, 24 h pre-treatment (IL-8 production) [%] | effect on IL-8 production (time course, FIG. 4A) (IL-8 production) | effect on IL-8 production at 12.5 μM, in words (IL-8 production) | reduction of IL-8 production, 1 and 6 h pre-treatment (IL-8 production) | decrease of IL-8 production, 48 h pre-treatment (IL-8 production) [%] | IC50 (IL-8 production) [µM]
1 | Cc1cccc(CN2CCN(C(c3ccccc3)c3ccc(Cl)cc3)CC2)c1 (centres unmarked) [meclozine, Meclozine] | did not cause any changed | 63 | inhibit | strong effect | did not reduce significantly | 78 | ~3
2 | N#CC(c1ccc(Cl)cc1)c1c(Cl)cc(-n2ncc(=O)[nH]c2=O)cc1Cl (centres unmarked) [diclazuril, Diclazuril] | did not cause any changed | 36 | inhibit | strong effect | did not reduce significantly | 65 | ~6
